Literature values in US20140342022A1, “Natural Product Against Fatigue” (priority 2013, published 2014).

Test system: EBV-EA activation
Conditions: latently infected cells

In the case of `O=c1c(O)c(-c2ccc(O)c(O)c2)oc2cc(O)cc(O)c12` [quercetin], the EBV-EA activation is given as “inhibits”.
